Article PMC9176681, “Evaluation of a flavonoid library for inhibition of interaction of HIV-1 integrase with human LEDGF/p75 towards a structure–activity relationship” (Annals of Medicine, 2022)
Where “and” joins values, the source holds several entries; their conditions need not be identical. Equal values may be shown once. Read-outs that look alike come from different tables or passages of the source.

Key:
IN-LEDGF/p75 interaction [1] = target: T1, IN-LEDGF/p75 interaction (Human immunodeficiency virus type 1 group M subtype B, UniProt P12497, C1427S/F1332K); assay: biochemical; format: binding, HIV-1; conditions: for inhibitory activity against IN-LEDGF/p75 interaction (in words): HTRF, 50 μM final concentration
T1 construct: His6 (C); made in house; host or cells: E. coli
Procedure: The inhibitory activities against the IBD-IN interaction were tested using HTRF assays according to a previous study. […] “Protein MIX” was prepared by mixing His6-HIV-1 IN (final concentration of 50 nM) and GST-IBD (final concentration of 25) in the assay buffer (25 mM Tris-HCl pH 7.5, 150 mM NaCl, 1 mg/ml BSA, 0.1% NP40, 2 mM MgCl2). […] To the 8 μl “protein MIX”, 2 μl of DMSO or compound (50 µM) dissolved in DMSO was added and mixed thoroughly. The concentrations of DMSO in the assay should be no more than 4%. The plate was incubated for 30 min at 25 °C. Then 10 μl premixed antibodies were added and mixed. The assay plate was incubated in the dark for 1 h at 25 °C. DMSO instead of the compound was used as a negative control. BI224436 was used as a positive compound for inhibition of IN-LEDGF/p75 interaction. […] Data were analysed and visualised in GraphPad Prism 5.0.

IN-LEDGF/p75 interaction [2] = target: T1, IN-LEDGF/p75 interaction; design: method as in PMID 24663024; conditions: previous experiment result; read-out: IC50, inhibition of IN-LEDGF/p75 interaction, previous experiment result; cited from earlier work
IN = target: T2, IN (Human immunodeficiency virus type 1 group M subtype B, UniProt P12497, C1427S/F1332K); assay: Biolayer interferometry (BLI) binding assay; design: species or system HIV-1; conditions: 30 °C, PBS with 0.01% Tween-20
T2 construct: His6 (C); made in house; host or cells: E. coli

COc1c(O)cc2c(c1O)C(=O)CC(c1ccc(O)cc1)O2 (stereo not shown) [compound 52]
inhibitory activity against IN-LEDGF/p75 interaction (in words) (IN-LEDGF/p75 interaction [1]): loss of activity

Oc1cc(O)c2c(c1)O[C@H](c1ccc(O)c(O)c1)[C@@H](O)C2 [compound 70]
inhibitory activity against IN-LEDGF/p75 interaction (in words) (IN-LEDGF/p75 interaction [1]): effectively blocked

COc1cc(O)c2c(c1)OC(c1ccc(O)cc1)CC2=O (stereo not shown) [compound 49]
inhibitory activity against IN-LEDGF/p75 interaction (in words) (IN-LEDGF/p75 interaction [1]): loss of activity

COc1cc(O)c(CC=C(C)C)c(O)c1C(=O)/C=C/c1ccc(O)cc1 [compound 95]
inhibitory activity against IN-LEDGF/p75 interaction (in words) (IN-LEDGF/p75 interaction [1]): drop in protein-protein interaction disruption

COc1ccc(-c2oc3cc(O)cc(O)c3c(=O)c2OC)cc1O [compound 15]
inhibitory activity against IN-LEDGF/p75 interaction (in words) (IN-LEDGF/p75 interaction [1]): reduced

O=C1c2c(O)cc(O)cc2OC(c2cc(O)c(O)c(O)c2)[C@H]1O (stereo partly shown) [compound 47]
inhibitory activity against IN-LEDGF/p75 interaction (in words) (IN-LEDGF/p75 interaction [1]): efficiently blocked

CC(C)=CCc1c(O)ccc2c1O[C@@H](c1ccc(O)cc1)CC2=O [compound 64]
inhibitory activity against IN-LEDGF/p75 interaction (in words) (IN-LEDGF/p75 interaction [1]): loss of activity

COc1ccccc1/C=C/C(=O)c1c(OC)cc(O)c(OC)c1O [compound 93]
inhibitory activity against IN-LEDGF/p75 interaction (in words) (IN-LEDGF/p75 interaction [1]): drop in protein-protein interaction disruption

COc1cc(O)c(OC)c(O)c1C(=O)/C=C/c1ccccc1 [compound 89]
inhibitory activity against IN-LEDGF/p75 interaction (in words) (IN-LEDGF/p75 interaction [1]): drop in protein-protein interaction disruption

C=C(C)C(O)Cc1c(O)cc(OC)c(C(=O)/C=C/c2ccc(O)cc2)c1O (stereo not shown) [compound 96]
inhibitory activity against IN-LEDGF/p75 interaction (in words) (IN-LEDGF/p75 interaction [1]): drop in protein-protein interaction disruption

COc1c(O)cc(O)c2c1O[C@@H](c1ccccc1O)CC2=O [compound 60]
inhibitory activity against IN-LEDGF/p75 interaction (in words) (IN-LEDGF/p75 interaction [1]): loss of activity

COc1cc2oc(-c3ccc(O)c(O)c3)c(OC)c(=O)c2c(O)c1OC [compound 16]
inhibitory activity against IN-LEDGF/p75 interaction (in words) (IN-LEDGF/p75 interaction [1]): effectively inhibited

Cc1nc2ccccc2c(-c2ccc3c4c(ccnc24)CCO3)c1[C@H](OC(C)(C)C)C(=O)O [BI224436, reference compound]
IC50 (IN-LEDGF/p75 interaction [1]): 18.8 nM | IC50 (IN-LEDGF/p75 interaction [2]): 11 nM

O=C1c2ccc(O)cc2OC(c2cc(O)c(O)c(O)c2)C1O (stereo not shown) [dihydrorobinetin]
Kd (IN): 1400 nM

Oc1cc(O)c2c(c1)O[C@H](c1ccc(O)c(O)c1)[C@H](O)C2 [compound 71]
inhibitory activity against IN-LEDGF/p75 interaction (in words) (IN-LEDGF/p75 interaction [1]): effectively blocked

Oc1cc(O)c2c(c1)O[C@H](c1cc(O)c(O)c(O)c1)[C@H](O)C2 [compound 68]
inhibitory activity against IN-LEDGF/p75 interaction (in words) (IN-LEDGF/p75 interaction [1]): effectively blocked

O=c1c(O)c(-c2ccc(O)c(O)c2)oc2cc(O)cc(O)c12 [compound 10]
inhibitory activity against IN-LEDGF/p75 interaction (in words) (IN-LEDGF/p75 interaction [1]): effectively inhibited

COc1cc(O)c2c(=O)c(OC)c(-c3ccc(O)c(OC)c3)oc2c1 [compound 14]
inhibitory activity against IN-LEDGF/p75 interaction (in words) (IN-LEDGF/p75 interaction [1]): reduced

O=C1C[C@@H](c2ccc(O)cc2)Oc2cc(O)cc(O)c21 [naringenin]
Kd (IN): 1400 nM and 1900 nM

COc1ccc(-c2oc3cc(O)cc(O)c3c(=O)c2O)cc1O [compound 12]
inhibitory activity against IN-LEDGF/p75 interaction (in words) (IN-LEDGF/p75 interaction [1]): reduced

COc1cc(-c2oc3cc(O)cc(O)c3c(=O)c2O)ccc1O [compound 3]
inhibitory activity against IN-LEDGF/p75 interaction (in words) (IN-LEDGF/p75 interaction [1]): reduced

Oc1cc(O)c2c(c1)O[C@H](c1ccc(O)c(O)c1)[C@H](O)C2 [epicatechin]
Kd (IN): 1700 nM

CC(C)=CCc1cc(-c2oc3cc(O)cc(O)c3c(=O)c2O)ccc1O [compound 2]
inhibitory activity against IN-LEDGF/p75 interaction (in words) (IN-LEDGF/p75 interaction [1]): reduced

CC(C)=CCc1cc(-c2oc3cc(O)c(CC=C(C)C)c(O)c3c(=O)c2O)ccc1O [compound 1]
inhibitory activity against IN-LEDGF/p75 interaction (in words) (IN-LEDGF/p75 interaction [1]): reduced

O=c1cc(-c2ccc(O)c(O)c2)oc2cc(O)cc(O)c12 [compound 30, Luteolin]
inhibitory activity against IN-LEDGF/p75 interaction (in words) (IN-LEDGF/p75 interaction [1]): most potent | Kd (IN): 1300 nM

O=C1c2ccc(O)cc2OC(c2cc(O)c(O)c(O)c2)C1O (stereo not shown) [compound 43]
inhibitory activity against IN-LEDGF/p75 interaction (in words) (IN-LEDGF/p75 interaction [1]): efficiently blocked

O=c1c(O)c(-c2cc(O)c(O)c(O)c2)oc2cc(O)cc(O)c12 [myricetin]
Kd (IN): 1000 nM

COc1cc(O)cc(O)c1C(=O)/C=C/c1ccc(O)cc1 [helichrysetin]
Kd (IN): 2700 nM

O=c1c(-c2ccc(O)cc2)coc2cc(O)cc(O)c12 [genistein]
inhibitory activity against IN-LEDGF/p75 interaction (in words) (IN-LEDGF/p75 interaction [1]): worst inhibitory activity | Kd (IN): 3600 nM and 2700 nM

COc1cc(-c2oc3cc(OC)c(OC)c(O)c3c(=O)c2OC)ccc1O [compound 19]
inhibitory activity against IN-LEDGF/p75 interaction (in words) (IN-LEDGF/p75 interaction [1]): reduced

COc1cc(-c2oc3cc(O)c(OC)c(O)c3c(=O)c2OC)ccc1O [compound 17]
inhibitory activity against IN-LEDGF/p75 interaction (in words) (IN-LEDGF/p75 interaction [1]): reduced

COc1cc(C2CC(=O)c3c(cc(O)c(OC)c3O)O2)cc(O)c1OC (stereo not shown) [compound 50]
inhibitory activity against IN-LEDGF/p75 interaction (in words) (IN-LEDGF/p75 interaction [1]): loss of activity

COc1cc(O)c(C(=O)/C=C/c2ccccc2)c(O)c1OC [compound 99]
inhibitory activity against IN-LEDGF/p75 interaction (in words) (IN-LEDGF/p75 interaction [1]): drop in protein-protein interaction disruption

COc1ccc(-c2oc3cc(O)cc(O)c3c(=O)c2O)cc1 [compound 4]
inhibitory activity against IN-LEDGF/p75 interaction (in words) (IN-LEDGF/p75 interaction [1]): reduced
